Measurements from patent publication US20240287138A1, “CYCLIC PEPTIDES FOR INHIBITING TNF RECEPTOR 1 ACTIVITY” (Merck Sharp & Dohme LLC, priority 2023, published 2024).
pIC50, pKd: −log10 of the molar value. Read-outs that look alike come from different tables or passages of the source. Numbered stars: 1 amine (or outer) side, 2 acyl side, 3 side chain; on linkers, the order of the positions; unused ones are H or OH. Bridge positions count the residues as written; N and C are the ends. Square brackets hold non-standard residues; d marks the D form. Peptide text beside a SMILES is read from it. * marks the point of attachment. Trp(βS-Me,7-OMe) = COc1cccc2c([C@H](C)[C@H](N)C(=O)O)c[nH]c12; Phe(3R-OH) = O=C([C@@H](N[*:1])[C@H](O[*:3])c1ccccc1)[*:2]; X56 = Cc1cccc2c([C@H](C)[C@H](N[*:1])C(=O)[*:2])c[nH]c12; Trp(1-CH2COOH) = N[C@@H](Cc1cn(CC(=O)O)c2ccccc12)C(=O)O; X44 = NC(=O)c1ccc([C@@H](O)[C@H](N[*:1])C(=O)[*:2])cc1; Phe(4-SO2NH2) = N[C@@H](Cc1ccc(S(N)(=O)=O)cc1)C(=O)O; Phe(4-SO3H) = N[C@@H](Cc1ccc(S(=O)(=O)O)cc1)C(=O)O; Trp(7-CN) = N#Cc1cccc2c(C[C@H](N)C(=O)O)c[nH]c12; Trp(7-Cl) = N[C@@H](Cc1c[nH]c2c(Cl)cccc12)C(=O)O; X62 = O=C(O)c1ccc(C[C@H](N[*:1])C(=O)[*:2])cc1Cl; Phe(4-CONH2) = NC(=O)c1ccc(C[C@H](N)C(=O)O)cc1; Phe(4-COOH) = N[C@@H](Cc1ccc(C(=O)O)cc1)C(=O)O; X59 = O=C([C@H](Cc1[nH]nc2ccccc12)N[*:1])[*:2]; Trp(7-aza) = N[C@@H](Cc1c[nH]c2ncccc12)C(=O)O; X58 = O=C([C@H](CCCCC(F)(F)F)N[*:1])[*:2]; Pip(5R-OH) = O=C(O)[C@@H]1CC[C@@H](O)CN1; X1 = O=C([C@@H]1CC[C@H](N[*:1])C1)[*:2]; X53 = O=C([C@H](Cc1ccncc1F)N[*:1])[*:2]; Pip(4-aza) = O=C(O)[C@@H]1CNCCN1; 4Pal = N[C@@H](Cc1ccncc1)C(=O)O; NMeE = CN[C@@H](CCC(=O)O)C(=O)O; dHyp = O=C(O)[C@H]1C[C@H](O)CN1; Pip = O=C(O)[C@@H]1CCCCN1; αMeS = C[C@](N)(CO)C(=O)O; Carboxymethyl = O=C(O)C*; Nle = CCCC[C@H](N)C(=O)O; Sar = CNCC(=O)O

Tests used:
[1] = target: T1, human soluble TNFR1 (sTNFR1) (Homo sapiens, UniProt P19438); assay: Human sTNFR1-peptide displacement assay (LanthaScreen Eu TR-FRET binding assay)
T1 construct: made in house; host or cells: Sf21 (baculovirus)
T1 sequence (P19438 with tags, fused parts or gaps): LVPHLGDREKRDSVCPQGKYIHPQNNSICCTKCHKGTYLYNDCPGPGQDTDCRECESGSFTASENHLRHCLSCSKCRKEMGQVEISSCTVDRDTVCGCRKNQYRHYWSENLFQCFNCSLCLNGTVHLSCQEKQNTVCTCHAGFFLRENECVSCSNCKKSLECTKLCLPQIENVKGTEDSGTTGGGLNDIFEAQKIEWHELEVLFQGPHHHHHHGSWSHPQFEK
Outline: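 Readout is the 665/615 nm TR-FRET ratio (Eu anti-His donor, streptavidin-Alexa647 acceptor), normalized to DMSO and saturating displacer, fit by Morrison-based five-parameter logistic for Kd^app. His-tagged sTNFR1 (1-211) prebound to 100 nM biotinylated peptide SEQ ID NO.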

[2] = target: T2, TNFα-induced NF-κB signal transduction pathway (TNFR1 signaling) in THP-1 cells (Homo sapiens, UniProt P19438); assay: THP-1 Lucia NF-κB reporter cell assay, inhibition of TNFα-induced NF-κB signaling; type: cell-based; conditions: THP-1 NF-κB Lucia reporter cells, 10 ng/mL TNFα, 16-18 h, secreted luciferase; read-out: THP-1 IC50
T2 sequence (P19438 30-455): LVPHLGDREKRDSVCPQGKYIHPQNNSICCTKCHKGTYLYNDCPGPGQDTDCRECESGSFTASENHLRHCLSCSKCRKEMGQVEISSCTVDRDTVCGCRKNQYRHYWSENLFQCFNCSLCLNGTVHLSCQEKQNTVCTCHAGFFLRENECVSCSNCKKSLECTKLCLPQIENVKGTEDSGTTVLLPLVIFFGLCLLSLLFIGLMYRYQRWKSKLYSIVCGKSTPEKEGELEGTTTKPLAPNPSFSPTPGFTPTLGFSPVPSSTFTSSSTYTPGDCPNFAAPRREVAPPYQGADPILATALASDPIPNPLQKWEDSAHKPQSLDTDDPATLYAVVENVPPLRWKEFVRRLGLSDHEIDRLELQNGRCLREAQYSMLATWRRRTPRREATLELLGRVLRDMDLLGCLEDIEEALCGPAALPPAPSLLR
Outline: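 Read-out: secreted Lucia luciferase luminescence (QUANTI-Luc) from supernatant after 16-18 h, 37 °C, 10 ng/mL rhTNFα. Peptide pretreatment 1 h at 37 °C; 20,000 cells/well, selection antibiotics omitted. IC50 via 4-parameter logistic model against min/max controls.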

Structure (SMILES)	pKd [1]	pIC50 [2]	pIC50 [1]	pKd ([1]; displacement of biotinylated peptide SEQ ID NO. 1 from sTNFR1, 20 point titration, 5-parameter fit based on Morrison equation (tight binding), read-out: TR-FRET Kd^app)
CCCC[C@@H]1NC(=O)[C@@H]2CC[C@@H](C2)NC(=O)[C@H]([C@@H](C)c2c[nH]c3c(OC)cccc23)NC(=O)CN(C)C(=O)[C@H](Cc2ccc(O)cc2)NC(=O)[C@H](Cc2ccc(C(=O)O)cc2)NC(=O)[C@](C)(CO)NC(=O)[C@H](Cc2c[nH]c3c(Cl)cccc23)NC(=O)[C@H](Cc2ccncc2)NC(=O)[C@H](CC(N)=O)NC(=O)[C@H](CCC(=O)O)N(C)C(=O)[C@H](Cc2cn(CC(=O)O)c3ccccc23)NC(=O)[C@@H]2CNCCN2C(=O)[C@H](Cc2ccncc2)NC1=O [SEQ ID NO. 197] (cyclo([4Pal][Trp(7-Cl)][αMeS][Phe(4-COOH)]Y[Sar][Trp(βS-Me,7-OMe)][X1][Nle][4Pal][Pip(4-aza)][Trp(1-CH2COOH)][NMeE]N))	9.44	9.15	–	–
CCCC[C@@H]1NC(=O)[C@@H]2CC[C@@H](C2)NC(=O)[C@H]([C@@H](C)c2c[nH]c3c(OC)cccc23)NC(=O)CN(C)C(=O)[C@H](Cc2ccc(O)cc2)NC(=O)[C@H](Cc2ccc(C(=O)O)cc2)NC(=O)[C@](C)(CO)NC(=O)[C@H](Cc2c[nH]c3c(Cl)cccc23)NC(=O)[C@H](Cc2ccncc2F)NC(=O)[C@H](CC(N)=O)NC(=O)[C@H](CCC(=O)O)N(C)C(=O)[C@H](Cc2c[nH]c3ccccc23)NC(=O)[C@@H]2CNCCN2C(=O)[C@H](Cc2ccncc2)NC1=O [SEQ ID NO. 198] (cyclo([4Pal][Pip(4-aza)]W[NMeE]N[X53][Trp(7-Cl)][αMeS][Phe(4-COOH)]Y[Sar][Trp(βS-Me,7-OMe)][X1][Nle]))	9.51	9.10	–	–
CCCC[C@@H]1NC(=O)[C@@H]2CC[C@@H](C2)NC(=O)[C@H]([C@@H](C)c2c[nH]c3c(OC)cccc23)NC(=O)CN(C)C(=O)[C@H](Cc2ccc(O)cc2)NC(=O)[C@H](Cc2ccc(S(=O)(=O)O)cc2)NC(=O)[C@](C)(CO)NC(=O)[C@H](Cc2c[nH]c3c(Cl)cccc23)NC(=O)[C@H](Cc2ccncc2)NC(=O)[C@H](CC(N)=O)NC(=O)[C@H](CCC(=O)O)N(C)C(=O)[C@H](Cc2c[nH]c3ccccc23)NC(=O)[C@@H]2CNCCN2C(=O)[C@H](Cc2ccncc2)NC1=O [SEQ ID NO. 199] (cyclo([4Pal][Trp(7-Cl)][αMeS][Phe(4-SO3H)]Y[Sar][Trp(βS-Me,7-OMe)][X1][Nle][4Pal][Pip(4-aza)]W[NMeE]N))	9.49	9.00	–	–
CCCC[C@@H]1NC(=O)[C@@H]2CC[C@@H](C2)NC(=O)[C@H]([C@@H](C)c2c[nH]c3c(OC)cccc23)NC(=O)CN(C)C(=O)[C@H](Cc2ccc(O)cc2)NC(=O)[C@H](Cc2ccc(C(=O)O)cc2)NC(=O)[C@](C)(CO)NC(=O)[C@H](Cc2c[nH]c3c(Cl)cccc23)NC(=O)[C@H](Cc2ccncc2)NC(=O)[C@H](CC(N)=O)NC(=O)[C@H](CCC(=O)O)N(C)C(=O)[C@H](Cc2c[nH]c3ccccc23)NC(=O)[C@@H]2CNCCN2C(=O)[C@H](Cc2ccncc2F)NC1=O [SEQ ID NO. 201] (cyclo([4Pal][Trp(7-Cl)][αMeS][Phe(4-COOH)]Y[Sar][Trp(βS-Me,7-OMe)][X1][Nle][X53][Pip(4-aza)]W[NMeE]N))	9.68	9.05	–	–
CCCC[C@@H]1NC(=O)[C@@H]2CC[C@@H](C2)NC(=O)[C@H]([C@@H](C)c2c[nH]c3c(OC)cccc23)NC(=O)CN(C)C(=O)[C@H](Cc2ccc(C(=O)O)cc2)NC(=O)[C@H](Cc2ccc(S(N)(=O)=O)cc2)NC(=O)[C@](C)(CO)NC(=O)[C@H](Cc2c[nH]c3c(C#N)cccc23)NC(=O)[C@H](Cc2ccc(C(=O)O)cc2)NC(=O)[C@H](CC(N)=O)NC(=O)[C@H]2C[C@H](OCC(=O)O)CN2C(=O)[C@H](Cc2[nH]nc3ccccc23)NC(=O)[C@@H]2CC[C@@H](O)CN2C(=O)[C@H](Cc2ccncc2)NC1=O [SEQ ID NO. 204] (cyclo([4Pal][Pip(5R-OH)][X59][dHyp](Carboxymethyl)N[Phe(4-COOH)][Trp(7-CN)][αMeS][Phe(4-SO2NH2)][Phe(4-COOH)][Sar][Trp(βS-Me,7-OMe)][X1][Nle]))	9.96	9.10	–	–
CCCC[C@@H]1NC(=O)[C@@H]2CC[C@@H](C2)NC(=O)[C@H]([C@@H](C)c2c[nH]c3c(OC)cccc23)NC(=O)CN(C)C(=O)[C@H](Cc2ccc(C(=O)O)c(Cl)c2)NC(=O)[C@H](Cc2ccc(C(N)=O)cc2)NC(=O)[C@](C)(CO)NC(=O)[C@H](Cc2c[nH]c3c(C#N)cccc23)NC(=O)[C@H](Cc2ccc(C(=O)O)c(Cl)c2)NC(=O)[C@H](CC(N)=O)NC(=O)[C@H]2C[C@H](O)CN2C(=O)[C@H](Cc2c[nH]c3ccccc23)NC(=O)[C@@H]2CC[C@@H](O)CN2C(=O)[C@H](Cc2ccncc2)NC1=O [SEQ ID NO. 207] (cyclo([4Pal][Pip(5R-OH)]W[dHyp]N[X62][Trp(7-CN)][αMeS][Phe(4-CONH2)][X62][Sar][Trp(βS-Me,7-OMe)][X1][Nle]))	9.92	9.00	–	–
CCCC[C@@H]1NC(=O)CSC[C@@H](C(N)=O)NC(=O)[C@H]([C@@H](C)c2c[nH]c3c(C)cccc23)NC(=O)CN(C)C(=O)[C@H](Cc2ccc(O)cc2)NC(=O)[C@H](Cc2ccc(C(=O)O)cc2)NC(=O)[C@](C)(CO)NC(=O)[C@H](Cc2c[nH]c3c(Cl)cccc23)NC(=O)[C@H](Cc2ccncc2)NC(=O)[C@H](CC(N)=O)NC(=O)[C@H](CCC(=O)O)N(C)C(=O)[C@H](Cc2c[nH]c3ccccc23)NC(=O)[C@@H]2CCCCN2C(=O)[C@H](Cc2ccncc2)NC1=O [SEQ ID NO. 208] ({CH2CO}-[Nle][4Pal][Pip]W[NMeE]N[4Pal][Trp(7-Cl)][αMeS][Phe(4-COOH)]Y[Sar][X56]C-NH2; thioether N-14)	–	8.40	8.88	–
CCCC[C@@H]1NC(=O)[C@@H]2CC[C@@H](C2)NC(=O)[C@H]([C@@H](C)c2c[nH]c3c(OC)cccc23)NC(=O)CN(C)C(=O)[C@H]([C@H](O)c2ccc(C(N)=O)cc2)NC(=O)[C@H](Cc2ccc(S(N)(=O)=O)cc2)NC(=O)[C@](C)(CO)NC(=O)[C@H](Cc2c[nH]c3c(C#N)cccc23)NC(=O)[C@H](Cc2ccc(C(=O)O)cc2)NC(=O)[C@H](CC(N)=O)NC(=O)[C@H]2C[C@H](O)CN2C(=O)[C@H](Cc2cn(CC(=O)O)c3ccccc23)NC(=O)[C@@H]2CC[C@@H](O)CN2C(=O)[C@H](Cc2ccncc2)NC1=O [SEQ ID NO. 210] (cyclo([4Pal][Pip(5R-OH)][Trp(1-CH2COOH)][dHyp]N[Phe(4-COOH)][Trp(7-CN)][αMeS][Phe(4-SO2NH2)][X44][Sar][Trp(βS-Me,7-OMe)][X1][Nle]))	–	9.30	–	9.92
CCCC[C@@H]1NC(=O)CSC[C@@H](C(N)=O)NC(=O)[C@H]([C@@H](C)c2c[nH]c3c(OC)cccc23)NC(=O)CN(C)C(=O)[C@H](Cc2ccc(O)cc2)NC(=O)[C@H](Cc2ccc(C(=O)O)cc2)NC(=O)[C@](C)(CO)NC(=O)[C@H](Cc2c[nH]c3c(Cl)cccc23)NC(=O)[C@H](Cc2ccncc2)NC(=O)[C@H](CC(N)=O)NC(=O)[C@H](CCC(=O)O)N(C)C(=O)[C@H](Cc2c[nH]c3ncccc23)NC(=O)[C@H]([C@H](O)c2ccccc2)NC(=O)[C@H](Cc2ccncc2)NC1=O [SEQ ID NO. 211] ({CH2CO}-[Nle][4Pal][Phe(3R-OH)][Trp(7-aza)][NMeE]N[4Pal][Trp(7-Cl)][αMeS][Phe(4-COOH)]Y[Sar][Trp(βS-Me,7-OMe)]C-NH2; thioether N-14)	9.20	8.48	9.10	–
COc1cccc2c([C@H](C)[C@@H]3NC(=O)CN(C)C(=O)[C@H](Cc4ccc(O)cc4)NC(=O)[C@H](Cc4ccc(C(=O)O)cc4)NC(=O)[C@](C)(CO)NC(=O)[C@H](Cc4c[nH]c5c(Cl)cccc45)NC(=O)[C@H](Cc4ccncc4)NC(=O)[C@H](CC(N)=O)NC(=O)[C@H](CCC(=O)O)N(C)C(=O)[C@H](Cc4c[nH]c5ccccc45)NC(=O)[C@@H]4CNCCN4C(=O)[C@H](Cc4ccncc4)NC(=O)[C@H](CCCCC(F)(F)F)NC(=O)[C@@H]4CC[C@@H](C4)NC3=O)c[nH]c12 [SEQ ID NO. 213] (cyclo([4Pal][Trp(7-Cl)][αMeS][Phe(4-COOH)]Y[Sar][Trp(βS-Me,7-OMe)][X1][X58][4Pal][Pip(4-aza)]W[NMeE]N))	9.51	9.00	–	–
